Drawing on patent US20260132132A1, “3A,4,5,6-TETRAHYDRO-1 H-PYRAZOLO[3,4-C]PYRIDIN-7(7AH)-ONE DERIVATIVES AS FACTOR XIIA INHIBITORS” (KALVISTA PHARMACEUTICALS LIMITED, priority 2022, published 2026), this text covers IC50 for 19 molecules.

The structures appear in SMILES notation. Some results are limits rather than exact numbers.

For experiment [1], the target named is T1, Human Factor XIIa (hFXIIa) (Homo sapiens, UniProt P00748).
T1 construct: purchased Enzyme Research Laboratories
T1 sequence (P00748 373-615 limits assumed): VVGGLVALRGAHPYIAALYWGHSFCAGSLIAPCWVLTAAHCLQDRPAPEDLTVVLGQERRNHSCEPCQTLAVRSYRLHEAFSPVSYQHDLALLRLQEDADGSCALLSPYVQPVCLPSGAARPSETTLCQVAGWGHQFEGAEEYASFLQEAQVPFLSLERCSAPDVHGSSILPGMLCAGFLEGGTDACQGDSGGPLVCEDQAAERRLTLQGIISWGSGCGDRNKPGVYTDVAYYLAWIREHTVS
T1 sequence (P00748 20-372 partner limits assumed): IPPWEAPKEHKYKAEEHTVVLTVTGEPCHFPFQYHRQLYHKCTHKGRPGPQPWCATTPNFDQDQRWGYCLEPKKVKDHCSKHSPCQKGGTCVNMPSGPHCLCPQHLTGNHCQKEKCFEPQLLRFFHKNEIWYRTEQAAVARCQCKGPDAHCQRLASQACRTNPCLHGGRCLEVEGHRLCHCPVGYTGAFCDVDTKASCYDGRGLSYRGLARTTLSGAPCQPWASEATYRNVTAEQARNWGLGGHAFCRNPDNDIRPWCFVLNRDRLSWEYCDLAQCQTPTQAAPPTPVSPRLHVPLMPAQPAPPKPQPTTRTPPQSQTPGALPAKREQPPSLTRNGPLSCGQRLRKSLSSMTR
Nature of the experiment: Determination of Human Factor XIIa (hFXIIa) inhibition, fluorogenic substrate IC50 assay. Format: biochemical. The conditions noted are these: fluorogenic substrate H-DPro-Phe-Arg-AFC at Km, 25° C., read-out: Human FXIIa IC50. As for the experimental part:
Determination of Human Factor XIIa (hFXIIa) inhibition
The Km for the cleavage of the substrate by hFXIIa was determined by standard transformation of the Michaelis-Menten equation, with subsequent inhibition assays performed at substrate Km concentration.

In experiment [2] the target is FXa (Homo sapiens, UniProt P00742). Nature of the experiment: Related protease inhibition: FXa, fluorogenic substrate. The conditions noted are these: fluorogenic substrate at Km, 25° C.; H1-H3 = % activity at 40 μM. Format: biochemical. As for the experimental part:
Human serine protease enzyme Plasma Kallikrein, KLK1, FXa, Plasmin, Thrombin and Trypsin were assayed for enzymatic activity using an appropriate fluorogenic substrate at Km concentration, FXIa at fixed substrate concentration of 100 μM and various concentrations of the test compound.

FXa, sequence (P00742 235-488 limits assumed): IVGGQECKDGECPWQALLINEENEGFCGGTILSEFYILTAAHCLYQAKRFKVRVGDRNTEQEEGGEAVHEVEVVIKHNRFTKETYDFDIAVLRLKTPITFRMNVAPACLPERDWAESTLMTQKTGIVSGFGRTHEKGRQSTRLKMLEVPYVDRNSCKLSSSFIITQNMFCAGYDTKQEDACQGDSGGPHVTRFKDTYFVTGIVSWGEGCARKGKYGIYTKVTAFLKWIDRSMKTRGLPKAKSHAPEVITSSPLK
FXa, sequence (P00742 41-179 partner limits assumed): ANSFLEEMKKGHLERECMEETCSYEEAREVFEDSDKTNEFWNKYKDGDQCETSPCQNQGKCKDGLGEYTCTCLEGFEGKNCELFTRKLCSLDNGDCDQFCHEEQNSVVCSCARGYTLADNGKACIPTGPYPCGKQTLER

`O=C(NCc1ccnnc1)c1nn(-c2cccc(Cl)c2)c2c1CCN(c1ccc3c(c1)CN(CCO)CC3)C2=O` [Example 1218, 1-(3-chlorophenyl)-6-(2-(2-hydroxyethyl)-1,2,3,4-tetrahydroisoquinolin-7-yl)-7-oxo-N-(pyridazin-4-ylmethyl)-4,5,6,7-tetrahydro-1H-pyrazolo[3,4-c]pyridine-3-carboxamide]: the IC50 (commonly the point on the concentration scale where inhibition reaches its midpoint) in experiment [1] was 100 to 300 nM; in experiment [2] it was over 40000 nM.
Regarding `CCNC(=O)c1nn(-c2cccc(Cl)c2)c2c1CCN(c1cccc(N3C(=O)CC4CC43)c1)C2=O` (centres unmarked) [Example 1367, 1-(3-Chlorophenyl)-N-ethyl-7-oxo-6-(3-(3-oxo-2-azabicyclo[3.1.0]hexan-2-yl)phenyl)-4,5,6,7-tetrahydro-1H-pyrazolo[3,4-c]pyridine-3-carboxamide], the IC50 in experiment [1] was in the range of 300 to 1000 nM; in experiment [2] it was 10000 to 40000 nM.
For `O=C(NCC1CC1)c1nn(-c2cccc(Cl)c2)c2c1CCN(c1cc3c(cc1F)CCN(CCO)C3)C2=O` [Example 1123, 1-(3-chlorophenyl)-N-(cyclopropylmethyl)-6-(6-fluoro-2-(2-hydroxyethyl)-1,2,3,4-tetrahydroisoquinolin-7-yl)-7-oxo-4,5,6,7-tetrahydro-1H-pyrazolo[3,4-c]pyridine-3-carboxamide] the same measures were 100 to 300 nM and over 40000 nM.
With `COc1ccc(CNC(=O)c2nn(-c3cccc(Cl)c3)c3c2CCN(c2ccc4c(c2)CN(C)CC4)C3=O)cn1` [Example 1135, 1-(3-chlorophenyl)-N-((6-methoxypyridin-3-yl)methyl)-6-(2-methyl-1,2,3,4-tetrahydroisoquinolin-7-yl)-7-oxo-4,5,6,7-tetrahydro-1H-pyrazolo[3,4-c]pyridine-3-carboxamide], the IC50 in experiment [1] lay in the range of 10 to 100 nM; in experiment [2] it was 1000 to 3000 nM.
Regarding `Cc1nc(CNC(=O)c2nn(-c3cccc(Cl)c3)c3c2CCN(c2ccc4c(c2)C(=O)N(C)CC4)C3=O)n[nH]1` [Example 1247, 1-(3-chlorophenyl)-6-(2-methyl-1-oxo-1,2,3,4-tetrahydroisoquinolin-7-yl)-N-((5-methyl-1H-1,2,4-triazol-3-yl)methyl)-7-oxo-4,5,6,7-tetrahydro-1H-pyrazolo[3,4-c]pyridine-3-carboxamide], the IC50 in experiment [1] was 100 to 300 nM; in experiment [2], over 40000 nM.
On the same counts, the results for `CCN1CCc2c(F)cc(N3CCc4c(C(=O)NCC5CC5)nn(-c5cccc(Cl)c5)c4C3=O)cc2C1` [Example 1121, 1-(3-chlorophenyl)-N-(cyclopropylmethyl)-6-(2-ethyl-5-fluoro-1,2,3,4-tetrahydroisoquinolin-7-yl)-7-oxo-4,5,6,7-tetrahydro-1H-pyrazolo[3,4-c]pyridine-3-carboxamide] are 100 to 300 nM and over 40000 nM.
For `CN1CCc2ccc(N3CCc4c(COC5(C)COC5)nn(-c5cccc(Cl)c5)c4C3=O)cc2C1=O` [Example 1354, 7-(1-(3-chlorophenyl)-3-(((3-methyloxetan-3-yl)oxy)methyl)-7-oxo-1,4,5,7-tetrahydro-6H-pyrazolo[3,4-c]pyridin-6-yl)-2-methyl-3,4-dihydroisoquinolin-1 (2H)-one] the same measures were 1000 to 3000 nM and 10000 to 40000 nM.
For `Cc1cn(C)nc1CNC(=O)c1nn(-c2cccc(Cl)c2)c2c1CCN(c1ccc3c(c1)CN(CCO)CC3)C2=O` [Example 1157, 1-(3-chlorophenyl)-N-((1,4-dimethyl-1H-pyrazol-3-yl)methyl)-6-(2-(2-hydroxyethyl)-1,2,3,4-tetrahydroisoquinolin-7-yl)-7-oxo-4,5,6,7-tetrahydro-1H-pyrazolo[3,4-c]pyridine-3-carboxamide] the same measures were 10 to 100 nM and 10000 to 40000 nM.
Take `Cc1cc(C)c(CNC(=O)c2nn(-c3cccc(Cl)c3)c3c2CCN(c2ccc4c(c2)C(=O)N(C)CC4)C3=O)cn1` [Example 1189, 1-(3-chlorophenyl)-N-((4,6-dimethylpyridin-3-yl)methyl)-6-(2-methyl-1-oxo-1,2,3,4-tetrahydroisoquinolin-7-yl)-7-oxo-4,5,6,7-tetrahydro-1H-pyrazolo[3,4-c]pyridine-3-carboxamide]: the figures for the half-maximal inhibitory concentration (IC50) in experiment [1] and in experiment [2] were 10 to 100 nM and over 40000 nM, respectively.
With `Cc1ccncc1CNC(=O)c1nn(-c2cccc(C#N)c2)c2c1CCN(c1ccc3c(c1)CN(CCO)CC3)C2=O` [Example 2010, 1-(3-cyanophenyl)-6-(2-(2-hydroxyethyl)-1,2,3,4-tetrahydroisoquinolin-7-yl)-N-((4-methylpyridin-3-yl)methyl)-7-oxo-4,5,6,7-tetrahydro-1H-pyrazolo[3,4-c]pyridine-3-carboxamide], the IC50 is 100 to 300 nM in experiment [1] and over 40000 nM in experiment [2].
For `CN1CCc2ccc(N3CCc4c(C(=O)NC5COCC5O)nn(-c5cccc(Cl)c5)c4C3=O)cc2C1=O` (centres unmarked) [Example 1179, 1-(3-chlorophenyl)-N-(4-hydroxytetrahydrofuran-3-yl)-6-(2-methyl-1-oxo-1,2,3,4-tetrahydroisoquinolin-7-yl)-7-oxo-4,5,6,7-tetrahydro-1H-pyrazolo[3,4-c]pyridine-3-carboxamide] the same measures were 300 to 1000 nM and over 40000 nM.
On the same counts, the results for `O=C(NCc1ccn(C2CC2)n1)c1nn(-c2cccc(Cl)c2)c2c1CCN(c1ccc3c(c1)C(=O)N(CCO)CC3)C2=O` [Example 1355, 1-(3-chlorophenyl)-N-((1-cyclopropyl-1H-pyrazol-3-yl)methyl)-6-(2-(2-hydroxyethyl)-1-oxo-1,2,3,4-tetrahydroisoquinolin-7-yl)-7-oxo-4,5,6,7-tetrahydro-1H-pyrazolo[3,4-c]pyridine-3-carboxamide] are 100 to 300 nM and over 40000 nM.
For `C[C@@H](NC(=O)c1nn(-c2cccc(Cl)c2)c2c1CCN(c1ccc3c(c1)CN(CCO)CC3)C2=O)c1cccnc1` [Example 1145, (R)-1-(3-chlorophenyl)-6-(2-(2-hydroxyethyl)-1,2,3,4-tetrahydroisoquinolin-7-yl)-7-oxo-N-(1-(pyridin-3-yl)ethyl)-4,5,6,7-tetrahydro-1H-pyrazolo[3,4-c]pyridine-3-carboxamide] the same measures were 100 to 300 nM and 10000 to 40000 nM.
For `CCNC(=O)c1nn(-c2cc(Cl)ccc2C)c2c1CCN(c1ccc3c(c1)C(=O)N(C)CC3)C2=O` [Example 2029, 1-(5-chloro-2-methylphenyl)-N-ethyl-6-(2-methyl-1-oxo-1,2,3,4-tetrahydroisoquinolin-7-yl)-7-oxo-4,5,6,7-tetrahydro-1H-pyrazolo[3,4-c]pyridine-3-carboxamide], the results for the IC50 in experiment [1] and in experiment [2] were 10000 to 40000 nM and over 40000 nM, respectively.
For the molecule `CCCN1CCc2ccc(N3CCc4c(C(=O)NCc5cnccc5C)nn(-c5cccc(Cl)c5)c4C3=O)cc2C1=O` [Example 1209, 1-(3-chlorophenyl)-N-((4-methylpyridin-3-yl)methyl)-7-oxo-6-(1-oxo-2-propyl-1,2,3,4-tetrahydroisoquinolin-7-yl)-4,5,6,7-tetrahydro-1H-pyrazolo[3,4-c]pyridine-3-carboxamide], the IC50 was 100 to 300 nM in experiment [1] and over 40000 nM in experiment [2].
For `CCNC(=O)c1nn(-c2cccc(Cl)c2)c2c1CCN(c1cccc(-n3ccn(C)c3=O)c1)C2=O` [Example 1399, 1-(3-chlorophenyl)-N-ethyl-6-(3-(3-methyl-2-oxo-2,3-dihydro-1H-imidazol-1-yl)phenyl)-7-oxo-4,5,6,7-tetrahydro-1H-pyrazolo[3,4-c]pyridine-3-carboxamide] the same measures were 1000 to 3000 nM and over 40000 nM.
For `CN1CCc2ccc(N3CCc4c(C(=O)NCc5cccnn5)nn(-c5cccc(Cl)c5)c4C3=O)cc2C1=O` [Example 1202, 1-(3-chlorophenyl)-6-(2-methyl-1-oxo-1,2,3,4-tetrahydroisoquinolin-7-yl)-7-oxo-N-(pyridazin-3-ylmethyl)-4,5,6,7-tetrahydro-1H-pyrazolo[3,4-c]pyridine-3-carboxamide] the same measures were 300 to 1000 nM and over 40000 nM.
For `Cc1nc2c(C(=O)NCC3CC3)nn(-c3cccc(Cl)c3)c2c(=O)n1-c1ccc2c(c1)C(=O)N(C)CC2` [Example 3014, 1-(3-chlorophenyl)-N-(cyclopropylmethyl)-5-methyl-6-(2-methyl-1-oxo-1,2,3,4-tetrahydroisoquinolin-7-yl)-7-oxo-6,7-dihydro-1H-pyrazolo[4,3-d]pyrimidine-3-carboxamide] the same measures were 100 to 300 nM and over 40000 nM.
Turning to `CN1CCc2ccc(N3CCc4c(C(=O)NC5CCC5)nn(-c5cccc(Cl)c5)c4C3=O)cc2C1=O` [Example 1346, 1-(3-chlorophenyl)-N-cyclobutyl-6-(2-methyl-1-oxo-1,2,3,4-tetrahydroisoquinolin-7-yl)-7-oxo-4,5,6,7-tetrahydro-1H-pyrazolo[3,4-c]pyridine-3-carboxamide], the figures for the concentration for half-maximal inhibition (IC50) in experiment [1] and in experiment [2] were 300 to 1000 nM and over 40000 nM, respectively.
